In patent US9828360B2 (Array BioPharma Inc., priority 2012, dated 2017):

Experiments:
Assay in all cases: KinaseProfiler off-target kinase profiling
Format in all cases: biochemical
Details in all cases: 10 μM, ATP near Km
ULK3 = target: T1, ULK3 (Homo sapiens, UniProt Q6PHR2)
T1 construct: purchased Millipore, Inc. (KinaseProfiler service)
Procedure, shortened: (§1)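 With ATP kept near each kinase's Km, a 10 μM dose of compound was tested twice. The reported number is percent of control, averaged across the pair.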

MRCKalpha = target: T2, MRCKalpha (Homo sapiens, UniProt Q5VT25)
T2 construct: purchased Millipore, Inc. (KinaseProfiler service)
Procedure, shortened: as §1

EphB3 = target: T3, EphB3 (Homo sapiens, UniProt P54753)
T3 construct: purchased Millipore, Inc. (KinaseProfiler service)
Procedure, shortened: as §1

MAP3K5 = target: T4, MAP3K5 (Homo sapiens, UniProt Q99683)
T4 construct: purchased Millipore, Inc. (KinaseProfiler service)
Procedure, shortened: as §1

JNK1alpha1 = target: T5, JNK1alpha1 (Homo sapiens, UniProt P45983)
T5 construct: purchased Millipore, Inc. (KinaseProfiler service)
Procedure, shortened: as §1

Tie2 = target: T6, Tie2 (Homo sapiens, UniProt Q02763)
T6 construct: purchased Millipore, Inc. (KinaseProfiler service)
Procedure, shortened: as §1

CDK2/cyclinE = target: T7, CDK2/cyclinE (Homo sapiens, UniProt P24941)
T7 construct: purchased Millipore, Inc. (KinaseProfiler service)
Procedure, shortened: as §1

PKCbetaII = target: T8, PKCbetaII (Homo sapiens, UniProt P05771)
T8 construct: purchased Millipore, Inc. (KinaseProfiler service)
Procedure, shortened: as §1

PAK5 = target: T9, PAK5 (Homo sapiens, UniProt Q9P286)
T9 construct: purchased Millipore, Inc. (KinaseProfiler service)
Procedure, shortened: as §1

MAP4K2 = target: T10, MAP4K2 (Homo sapiens, UniProt Q12851)
T10 construct: purchased Millipore, Inc. (KinaseProfiler service)
Procedure, shortened: as §1

EGFR = target: T11, EGFR (Homo sapiens, UniProt P00533)
T11 construct: purchased Millipore, Inc. (KinaseProfiler service)
Procedure, shortened: as §1

Pim-3 = target: T12, Pim-3 (Homo sapiens, UniProt Q86V86)
T12 construct: purchased Millipore, Inc. (KinaseProfiler service)
Procedure, shortened: as §1

LIMK1 = target: T13, LIMK1 (Homo sapiens, UniProt P53667)
T13 construct: purchased Millipore, Inc. (KinaseProfiler service)
Procedure, shortened: as §1

PDGFRalpha = target: T14, PDGFRalpha (Homo sapiens, UniProt P16234)
T14 construct: purchased Millipore, Inc. (KinaseProfiler service)
Procedure, shortened: as §1

Fes = target: T15, Fes (Homo sapiens, UniProt P07332)
T15 construct: purchased Millipore, Inc. (KinaseProfiler service)
Procedure, shortened: as §1

p38delta = target: T16, p38delta (Homo sapiens, UniProt O15264)
T16 construct: purchased Millipore, Inc. (KinaseProfiler service)
Procedure, shortened: as §1

Txk = target: T17, Txk (Homo sapiens, UniProt P42681)
T17 construct: purchased Millipore, Inc. (KinaseProfiler service)
Procedure, shortened: as §1

ZAP-70 = target: T18, ZAP-70 (Homo sapiens, UniProt P43403)
T18 construct: purchased Millipore, Inc. (KinaseProfiler service)
Procedure, shortened: as §1

MST2 = target: T19, MST2 (Homo sapiens, UniProt Q13188)
T19 construct: purchased Millipore, Inc. (KinaseProfiler service)
Procedure, shortened: as §1

FGFR4 = target: T20, FGFR4 (Homo sapiens, UniProt P22455)
T20 construct: purchased Millipore, Inc. (KinaseProfiler service)
Procedure, shortened: as §1

PAK4 = target: T21, PAK4 (Homo sapiens, UniProt O96013)
T21 construct: purchased Millipore, Inc. (KinaseProfiler service)
Procedure, shortened: as §1

Axl = target: T22, Axl (Homo sapiens, UniProt P30530)
T22 construct: purchased Millipore, Inc. (KinaseProfiler service)
Procedure, shortened: as §1

GSK3beta = target: T23, GSK3beta (Homo sapiens, UniProt P49841)
T23 construct: purchased Millipore, Inc. (KinaseProfiler service)
Procedure, shortened: as §1

ERK1 = target: T24, ERK1 (Homo sapiens, UniProt P27361)
T24 construct: purchased Millipore, Inc. (KinaseProfiler service)
Procedure, shortened: as §1

Fgr = target: T25, Fgr (Homo sapiens, UniProt P09769)
T25 construct: purchased Millipore, Inc. (KinaseProfiler service)
Procedure, shortened: as §1

Rsk3 = target: T26, Rsk3 (Homo sapiens, UniProt Q15349)
T26 construct: purchased Millipore, Inc. (KinaseProfiler service)
Procedure, shortened: as §1

MARK2 = target: T27, MARK2 (Homo sapiens, UniProt Q7KZI7)
T27 construct: purchased Millipore, Inc. (KinaseProfiler service)
Procedure, shortened: as §1

GRK7 = target: T28, GRK7 (Homo sapiens, UniProt Q8WTQ7)
T28 construct: purchased Millipore, Inc. (KinaseProfiler service)
Procedure, shortened: as §1

PASK = target: T29, PASK (Homo sapiens, UniProt Q96RG2)
T29 construct: purchased Millipore, Inc. (KinaseProfiler service)
Procedure, shortened: as §1

CK2 = target: T30, CK2 (Homo sapiens, UniProt P68400)
T30 construct: purchased Millipore, Inc. (KinaseProfiler service)
Procedure, shortened: as §1

IKKalpha = target: T31, IKKalpha (Homo sapiens, UniProt O15111)
T31 construct: purchased Millipore, Inc. (KinaseProfiler service)
Procedure, shortened: as §1

CAMK1d = target: T32, CAMK1d (Homo sapiens, UniProt Q8IU85)
T32 construct: purchased Millipore, Inc. (KinaseProfiler service)
Procedure, shortened: as §1

ERK2 = target: T33, ERK2 (Homo sapiens, UniProt P28482)
T33 construct: purchased Millipore, Inc. (KinaseProfiler service)
Procedure, shortened: as §1

FAK = target: T34, FAK (Homo sapiens, UniProt Q05397)
T34 construct: purchased Millipore, Inc. (KinaseProfiler service)
Procedure, shortened: as §1

Rsk4 = target: T35, Rsk4 (Homo sapiens, UniProt Q9UK32)
T35 construct: purchased Millipore, Inc. (KinaseProfiler service)
Procedure, shortened: as §1

Rsk2 = target: T36, Rsk2 (Homo sapiens, UniProt P51812)
T36 construct: purchased Millipore, Inc. (KinaseProfiler service)
Procedure, shortened: as §1

JAK3 = target: T37, JAK3 (Homo sapiens, UniProt P52333)
T37 construct: purchased Millipore, Inc. (KinaseProfiler service)
Procedure, shortened: as §1

PKCdelta = target: T38, PKCdelta (Homo sapiens, UniProt Q05655)
T38 construct: purchased Millipore, Inc. (KinaseProfiler service)
Procedure, shortened: as §1

AKT1 = target: T39, AKT1 (Homo sapiens, UniProt P31749)
T39 construct: purchased Millipore, Inc. (KinaseProfiler service)
Procedure, shortened: as §1

MARK1 = target: T40, MARK1 (Homo sapiens, UniProt Q9P0L2)
T40 construct: purchased Millipore, Inc. (KinaseProfiler service)
Procedure, shortened: as §1

PKCalpha = target: T41, PKCalpha (Homo sapiens, UniProt P17252)
T41 construct: purchased Millipore, Inc. (KinaseProfiler service)
Procedure, shortened: as §1

CLK3 = target: T42, CLK3 (Homo sapiens, UniProt P49761)
T42 construct: purchased Millipore, Inc. (KinaseProfiler service)
Procedure, shortened: as §1

T13 sequence (P53667 whole entry): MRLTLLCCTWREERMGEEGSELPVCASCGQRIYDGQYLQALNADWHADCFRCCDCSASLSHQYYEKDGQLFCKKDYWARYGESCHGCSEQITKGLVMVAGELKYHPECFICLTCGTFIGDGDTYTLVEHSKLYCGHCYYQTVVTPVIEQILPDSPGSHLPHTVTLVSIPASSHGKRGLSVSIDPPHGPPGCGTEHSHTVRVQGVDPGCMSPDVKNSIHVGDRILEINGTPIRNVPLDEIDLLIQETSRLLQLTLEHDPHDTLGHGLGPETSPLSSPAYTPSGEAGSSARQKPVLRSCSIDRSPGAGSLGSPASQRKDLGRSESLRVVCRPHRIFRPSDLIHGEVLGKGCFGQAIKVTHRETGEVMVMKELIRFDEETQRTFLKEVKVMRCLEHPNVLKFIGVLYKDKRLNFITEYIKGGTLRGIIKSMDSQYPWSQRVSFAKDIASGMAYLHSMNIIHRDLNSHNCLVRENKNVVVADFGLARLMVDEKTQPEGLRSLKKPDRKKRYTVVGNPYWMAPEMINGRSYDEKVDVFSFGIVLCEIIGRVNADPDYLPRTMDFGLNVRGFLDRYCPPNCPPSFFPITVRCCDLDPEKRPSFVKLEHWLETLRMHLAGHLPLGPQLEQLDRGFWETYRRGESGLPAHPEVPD
T37 sequence (P52333 whole entry): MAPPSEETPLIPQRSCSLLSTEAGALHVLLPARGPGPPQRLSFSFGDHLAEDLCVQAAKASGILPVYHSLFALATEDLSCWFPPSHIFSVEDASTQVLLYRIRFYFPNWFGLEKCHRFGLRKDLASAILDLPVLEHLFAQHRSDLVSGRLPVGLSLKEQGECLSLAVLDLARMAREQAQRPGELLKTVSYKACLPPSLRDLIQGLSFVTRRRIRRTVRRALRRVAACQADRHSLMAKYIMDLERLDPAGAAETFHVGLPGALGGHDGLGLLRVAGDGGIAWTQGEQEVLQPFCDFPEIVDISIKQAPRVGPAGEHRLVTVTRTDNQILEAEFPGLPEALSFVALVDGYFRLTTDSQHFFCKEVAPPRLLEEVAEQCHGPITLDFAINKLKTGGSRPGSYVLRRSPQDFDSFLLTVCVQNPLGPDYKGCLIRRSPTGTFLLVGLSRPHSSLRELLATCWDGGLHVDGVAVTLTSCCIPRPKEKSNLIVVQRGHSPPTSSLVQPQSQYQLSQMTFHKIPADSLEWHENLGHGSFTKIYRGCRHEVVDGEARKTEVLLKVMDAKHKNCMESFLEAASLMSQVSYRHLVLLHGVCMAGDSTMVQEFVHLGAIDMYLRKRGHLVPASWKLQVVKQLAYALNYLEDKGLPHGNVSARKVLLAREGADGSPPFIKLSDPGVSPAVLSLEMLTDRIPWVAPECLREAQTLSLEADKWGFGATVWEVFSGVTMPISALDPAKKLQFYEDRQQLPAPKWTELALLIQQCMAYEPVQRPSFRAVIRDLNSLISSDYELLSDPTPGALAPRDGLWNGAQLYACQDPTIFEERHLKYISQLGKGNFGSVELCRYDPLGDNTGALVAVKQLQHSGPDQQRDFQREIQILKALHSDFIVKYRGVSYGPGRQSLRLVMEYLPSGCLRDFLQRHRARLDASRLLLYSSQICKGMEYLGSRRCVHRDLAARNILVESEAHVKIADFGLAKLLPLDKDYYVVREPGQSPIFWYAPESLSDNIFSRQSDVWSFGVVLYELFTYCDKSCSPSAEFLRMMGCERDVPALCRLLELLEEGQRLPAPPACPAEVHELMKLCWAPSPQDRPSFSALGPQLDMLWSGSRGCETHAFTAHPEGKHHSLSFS
T8 sequence (P05771 1-673 isoform P05771-2): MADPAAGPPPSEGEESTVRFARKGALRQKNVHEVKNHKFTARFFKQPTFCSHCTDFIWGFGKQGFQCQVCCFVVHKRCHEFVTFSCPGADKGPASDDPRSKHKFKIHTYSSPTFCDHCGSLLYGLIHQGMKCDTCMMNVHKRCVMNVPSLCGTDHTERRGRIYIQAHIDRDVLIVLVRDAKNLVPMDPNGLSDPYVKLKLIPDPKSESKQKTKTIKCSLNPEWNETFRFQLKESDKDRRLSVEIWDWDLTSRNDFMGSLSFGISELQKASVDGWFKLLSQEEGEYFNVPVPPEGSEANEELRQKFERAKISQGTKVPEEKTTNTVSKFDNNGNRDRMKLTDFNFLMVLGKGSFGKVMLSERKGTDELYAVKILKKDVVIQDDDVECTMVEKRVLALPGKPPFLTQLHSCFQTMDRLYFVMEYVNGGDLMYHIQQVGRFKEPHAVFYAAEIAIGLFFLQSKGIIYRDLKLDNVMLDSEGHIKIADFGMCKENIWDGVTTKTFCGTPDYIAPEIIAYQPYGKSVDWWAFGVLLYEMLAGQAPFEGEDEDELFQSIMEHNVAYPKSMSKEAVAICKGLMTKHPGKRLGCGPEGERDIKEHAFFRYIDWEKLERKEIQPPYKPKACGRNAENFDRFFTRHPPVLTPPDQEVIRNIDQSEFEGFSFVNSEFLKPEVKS
T9 sequence (Q9P286 whole entry): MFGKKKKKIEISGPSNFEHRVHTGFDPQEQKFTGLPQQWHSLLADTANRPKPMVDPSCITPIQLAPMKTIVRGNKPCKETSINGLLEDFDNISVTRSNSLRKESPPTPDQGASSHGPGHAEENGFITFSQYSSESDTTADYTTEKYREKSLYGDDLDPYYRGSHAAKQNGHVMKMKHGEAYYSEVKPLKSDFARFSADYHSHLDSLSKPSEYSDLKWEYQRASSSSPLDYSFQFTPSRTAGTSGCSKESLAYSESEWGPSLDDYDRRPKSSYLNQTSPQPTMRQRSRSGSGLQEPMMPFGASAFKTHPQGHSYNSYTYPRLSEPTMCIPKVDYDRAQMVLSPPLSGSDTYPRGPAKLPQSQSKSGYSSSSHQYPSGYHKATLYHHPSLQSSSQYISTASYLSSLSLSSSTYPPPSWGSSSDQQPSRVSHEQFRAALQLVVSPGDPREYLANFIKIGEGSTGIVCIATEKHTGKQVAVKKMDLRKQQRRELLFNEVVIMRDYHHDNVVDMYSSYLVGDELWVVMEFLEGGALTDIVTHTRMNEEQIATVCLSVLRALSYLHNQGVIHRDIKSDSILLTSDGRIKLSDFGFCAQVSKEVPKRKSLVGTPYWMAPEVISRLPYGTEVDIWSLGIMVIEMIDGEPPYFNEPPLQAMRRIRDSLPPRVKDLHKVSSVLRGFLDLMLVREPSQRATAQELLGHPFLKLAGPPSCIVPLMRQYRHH
T11 sequence (P00533 25-1210): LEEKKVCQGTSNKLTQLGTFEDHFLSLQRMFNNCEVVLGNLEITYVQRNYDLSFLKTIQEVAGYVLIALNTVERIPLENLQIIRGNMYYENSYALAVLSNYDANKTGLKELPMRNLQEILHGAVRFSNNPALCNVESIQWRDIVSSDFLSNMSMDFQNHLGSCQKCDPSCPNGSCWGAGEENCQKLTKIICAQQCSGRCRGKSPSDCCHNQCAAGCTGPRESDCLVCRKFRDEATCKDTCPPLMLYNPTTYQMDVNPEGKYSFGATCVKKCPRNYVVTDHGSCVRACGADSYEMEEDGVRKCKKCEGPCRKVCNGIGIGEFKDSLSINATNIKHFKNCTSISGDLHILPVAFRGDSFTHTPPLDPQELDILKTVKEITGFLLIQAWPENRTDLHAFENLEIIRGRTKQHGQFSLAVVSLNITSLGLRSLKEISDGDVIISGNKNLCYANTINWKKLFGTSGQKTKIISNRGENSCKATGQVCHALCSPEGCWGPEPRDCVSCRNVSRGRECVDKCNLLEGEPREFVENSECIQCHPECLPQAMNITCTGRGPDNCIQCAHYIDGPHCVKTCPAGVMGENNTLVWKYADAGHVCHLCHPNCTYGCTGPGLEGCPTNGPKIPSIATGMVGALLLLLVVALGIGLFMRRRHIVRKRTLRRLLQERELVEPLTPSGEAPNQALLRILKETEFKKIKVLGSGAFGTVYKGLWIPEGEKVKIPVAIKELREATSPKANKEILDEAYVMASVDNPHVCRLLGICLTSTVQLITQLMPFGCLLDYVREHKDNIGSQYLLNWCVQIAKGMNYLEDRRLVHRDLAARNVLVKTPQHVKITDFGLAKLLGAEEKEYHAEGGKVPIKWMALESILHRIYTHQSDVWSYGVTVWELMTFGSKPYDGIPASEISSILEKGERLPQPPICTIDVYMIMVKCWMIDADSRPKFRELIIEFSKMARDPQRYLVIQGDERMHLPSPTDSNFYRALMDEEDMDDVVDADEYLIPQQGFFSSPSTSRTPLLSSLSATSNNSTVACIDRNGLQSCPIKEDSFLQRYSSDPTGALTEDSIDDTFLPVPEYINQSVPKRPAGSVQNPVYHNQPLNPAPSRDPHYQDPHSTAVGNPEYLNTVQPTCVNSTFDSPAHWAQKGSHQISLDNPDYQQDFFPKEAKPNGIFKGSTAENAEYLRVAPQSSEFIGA
T21 sequence (O96013 whole entry): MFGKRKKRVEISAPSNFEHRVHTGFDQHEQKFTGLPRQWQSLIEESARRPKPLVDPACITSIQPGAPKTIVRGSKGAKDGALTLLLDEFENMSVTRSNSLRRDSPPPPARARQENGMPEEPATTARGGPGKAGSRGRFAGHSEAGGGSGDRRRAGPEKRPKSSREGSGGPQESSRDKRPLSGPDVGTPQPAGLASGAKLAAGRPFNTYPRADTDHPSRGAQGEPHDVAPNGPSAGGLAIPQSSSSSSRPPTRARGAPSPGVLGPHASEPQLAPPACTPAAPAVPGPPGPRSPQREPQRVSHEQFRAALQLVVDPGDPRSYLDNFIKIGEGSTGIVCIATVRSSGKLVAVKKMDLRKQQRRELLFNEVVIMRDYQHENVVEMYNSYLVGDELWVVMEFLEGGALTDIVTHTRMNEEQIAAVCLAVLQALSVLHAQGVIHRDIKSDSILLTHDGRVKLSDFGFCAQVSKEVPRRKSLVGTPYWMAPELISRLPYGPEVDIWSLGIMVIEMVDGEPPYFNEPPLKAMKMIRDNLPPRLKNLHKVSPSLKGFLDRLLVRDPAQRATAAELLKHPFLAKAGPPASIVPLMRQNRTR

Avg POC (ULK3): 100% of control
Avg POC (MRCKalpha): 113.5% of control
Avg POC (EphB3): 119% of control
Avg POC (MAP3K5): 102.5% of control
Avg POC (JNK1alpha1): 106.5% of control
Avg POC (Tie2): 96% of control
Avg POC (CDK2/cyclinE): 113% of control
Avg POC (PKCbetaII): 97.5% of control
Avg POC (PAK5): 113% of control
Avg POC (MAP4K2): 110.5% of control
Avg POC (EGFR): 111% of control
Avg POC (Pim-3): 140.5% of control
Avg POC (LIMK1): 104% of control
Avg POC (PDGFRalpha): 104.5% of control
Avg POC (Fes): 86.5% of control
Avg POC (p38delta): 108.5% of control
Avg POC (Txk): 85.5% of control
Avg POC (ZAP-70): 100.5% of control
Avg POC (MST2): 109.5% of control
Avg POC (FGFR4): 102.5% of control
Avg POC (PAK4): 134.5% of control
Avg POC (Axl): 113% of control
Avg POC (GSK3beta): 63% of control
Avg POC (ERK1): 100% of control
Avg POC (Fgr): 111.5% of control
Avg POC (Rsk3): 108% of control
Avg POC (MARK2): 93% of control
Avg POC (GRK7): 122% of control
Avg POC (PASK): 103% of control
Avg POC (CK2): 106% of control
Avg POC (IKKalpha): 112% of control
Avg POC (CAMK1d): 105% of control
Avg POC (ERK2): 101% of control
Avg POC (FAK): 107.5% of control
Avg POC (Rsk4): 116% of control
Avg POC (Rsk2): 134% of control
Avg POC (JAK3): 102.5% of control
Avg POC (PKCdelta): 119.5% of control
Avg POC (AKT1): 117% of control
Avg POC (MARK1): 113% of control
Avg POC (PKCalpha): 106.5% of control
Avg POC (CLK3): 101.5% of control
Structure (SMILES): COCCN1C[C@@H](NC(=O)Nc2sc(C(C)C)nc2-c2ccccc2)[C@H](c2ccccc2)C1 [Example 48, 1-(2-isopropyl-4-phenylthiazol-5-yl)-3-((3S,4R)-1-(2-methoxyethyl)-4-phenylpyrrolidin-3-yl)urea]
